This is an account of results in patent US9085561B2, “Cyclic urea- or lactam-substituted quinoxaline-type piperidines as ORL-1 modulators” (priority 2012, dated 2015).

Broadly, the IC50 is the midpoint of a concentration-inhibition curve. A higher IC50 goes with weaker potency in that assay. Broadly, the EC50 is the concentration that produces a half-maximal response. Broadly, the Ki is the dissociation constant of the complex between target and ligand, obtained from inhibition or displacement. Read a low Ki as a stronger hold on the target.

In one assay the target is human CYP2D6 (Homo sapiens, UniProt P10635). The assay is described as follows: Cytochrome P450 2D6 inhibition (dextromethorphan O-demethylation, pooled human hepatic microsome).
Sequence of human CYP2D6 (P10635 whole entry): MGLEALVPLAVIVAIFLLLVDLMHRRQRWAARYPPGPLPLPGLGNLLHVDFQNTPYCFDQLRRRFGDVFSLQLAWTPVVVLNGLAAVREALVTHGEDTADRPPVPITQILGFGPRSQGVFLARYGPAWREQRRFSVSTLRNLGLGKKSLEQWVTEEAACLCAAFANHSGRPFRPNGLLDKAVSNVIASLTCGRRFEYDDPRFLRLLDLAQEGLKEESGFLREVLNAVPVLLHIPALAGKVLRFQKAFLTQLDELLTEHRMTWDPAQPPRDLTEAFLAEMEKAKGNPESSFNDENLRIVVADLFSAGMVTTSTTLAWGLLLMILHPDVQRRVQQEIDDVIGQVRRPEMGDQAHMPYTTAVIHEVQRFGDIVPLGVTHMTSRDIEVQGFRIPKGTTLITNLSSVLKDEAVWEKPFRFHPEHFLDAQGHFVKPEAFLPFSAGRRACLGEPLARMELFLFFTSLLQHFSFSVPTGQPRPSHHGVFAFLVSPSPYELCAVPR
The target in assay [1] is human opioid receptor-like (ORL-1) (Homo sapiens, UniProt P41146). As to the kind of experiment: In vitro ORL-1 receptor [35S]GTPγS functional assay. The class given is biochemical.
Sequence of human opioid receptor-like (ORL-1) (P41146 whole entry): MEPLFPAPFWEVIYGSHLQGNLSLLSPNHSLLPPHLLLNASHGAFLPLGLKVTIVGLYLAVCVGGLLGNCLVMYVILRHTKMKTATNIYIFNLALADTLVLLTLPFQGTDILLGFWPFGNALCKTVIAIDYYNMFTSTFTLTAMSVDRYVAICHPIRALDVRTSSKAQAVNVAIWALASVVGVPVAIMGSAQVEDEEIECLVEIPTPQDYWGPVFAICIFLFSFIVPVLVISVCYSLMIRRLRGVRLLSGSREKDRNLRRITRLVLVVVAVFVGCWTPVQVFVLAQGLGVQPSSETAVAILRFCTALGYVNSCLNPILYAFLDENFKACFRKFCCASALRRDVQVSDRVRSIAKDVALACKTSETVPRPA
The target in assay [2] is human kappa opioid receptor (Homo sapiens, UniProt P41145). The assay is described as follows: In vitro kappa-opioid receptor binding assay ([3H]-U69,593 displacement).
Sequence of human kappa opioid receptor (P41145 whole entry): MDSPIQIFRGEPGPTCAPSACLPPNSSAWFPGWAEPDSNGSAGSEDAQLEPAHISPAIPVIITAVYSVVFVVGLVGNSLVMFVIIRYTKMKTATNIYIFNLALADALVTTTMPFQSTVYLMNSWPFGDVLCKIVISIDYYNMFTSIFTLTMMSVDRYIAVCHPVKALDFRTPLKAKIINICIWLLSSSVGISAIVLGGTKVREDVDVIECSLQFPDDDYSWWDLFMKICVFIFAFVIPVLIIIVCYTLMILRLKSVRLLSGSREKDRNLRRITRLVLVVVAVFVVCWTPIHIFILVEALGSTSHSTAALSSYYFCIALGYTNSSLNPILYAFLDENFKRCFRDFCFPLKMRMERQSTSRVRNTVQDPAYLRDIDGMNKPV

The compound `O=c1cnn(-c2nc3ccccc3n([C@H]3C[C@H]4CCC[C@@H](C3)N4[C@@H]3C[C@@H]4CCCC[C@@H](C4)C3)c2=O)c(=O)[nH]1` [Compound O9b, 2-(4-((1R,3R,5S)-9-((1R,6S,8s)-bicyclo[4.3.1]decan-8-yl)-9-azabicyclo[3.3.1]nonan-3-yl)-3-oxo-3,4-dihydroquinoxalin-2-yl)-1,2,4-triazine-3,5(2H,4H)-dione] displayed a concentration for half-maximal inhibition (IC50) at human CYP2D6 of over 20 µM. Moreover, the EC50 in assay [1] was over 20 µM.

As for `O=c1ccn(-c2nc3ccccc3n([C@H]3C[C@H]4CCC[C@@H](C3)N4[C@@H]3C[C@@H]4CCCC[C@@H](C4)C3)c2=O)c(=O)[nH]1` [Compound O13b, 1-(4-((1R,3R,5S)-9-((1R,6S,8s)-bicyclo[4.3.1]decan-8-yl)-9-azabicyclo[3.3.1]nonan-3-yl)-3-oxo-3,4-dihydroquinoxalin-2-yl)pyrimidine-2,4(1H,3H)-dione], the IC50 on human CYP2D6 is over 20 µM. This compound had a half-maximal effective concentration (EC50) in assay [1] of over 20 µM.

In the case of `CC1(C)C(=O)NC(=O)N1c1nc2ccccc2n([C@H]2C[C@H]3CCC[C@@H](C2)N3[C@@H]2C[C@@H]3CCCC[C@@H](C3)C2)c1=O` [Compound O19a, 1-(4-((1R,3R,5S)-9-((1R,6S,8s)-bicyclo[4.3.1]decan-8-yl)-9-azabicyclo[3.3.1]nonan-3-yl)-3-oxo-3,4-dihydroquinoxalin-2-yl)-5,5-dimethylimidazolidine-2,4-dione], the IC50 on human CYP2D6 is over 20 µM. The same compound registered an EC50 in assay [1] of over 20 µM.

With `O=c1cnn(-c2nc3ccccc3n([C@H]3C[C@H]4COC[C@@H](C3)N4[C@@H]3C[C@@H]4CCCC[C@@H](C4)C3)c2=O)c(=O)[nH]1` [Compound P9b, 2-(4-((1R,5S,7 S)-9-((1R,6S,8s)-bicyclo[4.3.1]decan-8-yl)-3-oxa-9-azabicyclo[3.3.1]nonan-7-yl)-3-oxo-3,4-dihydroquinoxalin-2-yl)-1,2,4-triazine-3,5(2H,4H)-dione], in assay [2], the inhibition constant Ki stood at 13.1 µM. In addition, on human CYP2D6, the concentration for half-maximal inhibition (IC50) was over 20 µM. In assay [1], this compound showed an EC50 of 0.104 ± 0.043 µM.

As to `Cc1nn(-c2nc3ccccc3n([C@H]3C[C@H]4CCC[C@@H](C3)N4[C@H]3C[C@@H]4CCC[C@@H](C4)C3)c2=O)c(=S)[nH]c1=O` [Compound U001, 1-((1R,1′R,3r,3′R,5S,5′S)-[3,9′-bi(9′-azabicyclo[3.3.1]nonan)]-3′-yl)-3-(6-methyl-5-oxo-3-thioxo-4,5-dihydro-1,2,4-triazin-2(3H)-yl)quinoxalin-2(1H)-one], on human CYP2D6, the 50% inhibitory concentration (IC50) is over 20 µM. Moreover, the EC50 in assay [1] is over 20 µM.

Consider `O=c1ncc(-c2nc3ccccc3n([C@H]3C[C@H]4CCC[C@@H](C3)N4[C@H]3C[C@@H]4CCC[C@@H](C4)C3)c2=O)c[nH]1` [Compound U048, 1-((1R,1′R,3r,3′R,5S,5′S)-[3,9′-bi(9′-azabicyclo[3.3.1]nonan)]-3′-yl)-3-(2-oxo-1,2-dihydropyrimidin-5-yl)quinoxalin-2(1H)-one], for which the IC50 against human CYP2D6 is over 20 µM. This compound had an EC50 in assay [1] of over 20 µM.

`O=C(O)CCn1cccc(-c2nc3ccccc3n([C@H]3C[C@H]4CCC[C@@H](C3)N4[C@H]3C[C@@H]4CCC[C@@H](C4)C3)c2=O)c1=O` [Compound U057, 3-(3-(4-((1R,1′R,3r,3′R,5S,5′S)-[3,9′-bi(9′-azabicyclo[3.3.1]nonan)]-3′-yl)-3-oxo-3,4-dihydroquinoxalin-2-yl)-2-oxopyridin-1(2H)-yl)propanoic acid] came in with an IC50 at human CYP2D6 of over 20 µM. In addition, in assay [1], the EC50 is over 20 µM.

With `Nc1ccn(-c2nc3ccccc3n([C@H]3C[C@H]4CCC[C@@H](C3)N4[C@@H]3C[C@@H]4CCCC[C@@H](C4)C3)c2=O)c(=O)n1` [Compound U068, 3-(4-amino-2-oxopyrimidin-1(2H)-yl)-1-((1R,3R,5S)-9-((1R,6S,8s)-bicyclo[4.3.1]decan-8-yl)-9-azabicyclo[3.3.1]nonan-3-yl)quinoxalin-2(1H)-one], the IC50 against human CYP2D6 was over 20 µM. This compound also came in with an EC50 in assay [1] of over 20 µM.

The compound `O=C(O)Cn1cccc(-c2nc3ccccc3n([C@H]3C[C@H]4CC[C@@H](C3)N4[C@H]3C[C@@H]4CCC[C@@H](C4)C3)c2=O)c1=O` [Q13a(iii), 2-(3-(4-((1R,3R,5S)-8-((1R,3r,5S)-bicyclo[3.3.1]nonan-3-yl)-8-azabicyclo[3.2.1]octan-3-yl)-3-oxo-3,4-dihydroquinoxalin-2-yl)-2-oxopyridin-1(2H)-yl)acetic acid] registered an IC50 against human CYP2D6 of over 20 µM. The same compound came in with a concentration giving a half-maximal response (EC50) in assay [1] of 0.255 ± 0.042 µM.

Consider `O=c1[nH]cc(F)cc1-c1nc2ccccc2n([C@H]2C[C@H]3CCC[C@@H](C2)N3[C@H]2C[C@@H]3CCC[C@@H](C3)C2)c1=O` [R16a(i), 1-((1R,1′R,3r,3′R,5S,5′S)-[3,9′-bi(9′-azabicyclo[3.3.1]nonan)]-3′-yl)-3-(5-fluoro-2-oxo-1,2-dihydropyridin-3-yl)quinoxalin-2(1H)-one], for which the half-inhibitory concentration (IC50) against human CYP2D6 was over 20 µM. This compound registered an EC50 in assay [1] of 1.61 ± 0.441 µM.
